The record followed here is ChEMBL document CHEMBL5728583, “Galactoside inhibitor of galectins” (2021).

What is called Kd is the equilibrium constant for the complex coming apart. High values mean lower affinity, low ones higher affinity.

One assay concerns the target Galectin-1 (Homo sapiens, UniProt P09382). The assay is described as follows: fluorescence anisotropy assay: The affinity of Example 1-33 for galectins were determined by a fluorescence anisotropy assay where the compound was used as an inhibitor of the interaction between galectin and a fluorescein tagged saccharide probe as described Sörme, P., Kahl-Knutsson, B., Huflejt, M., Nilsson, U. J., and Leffler H. (2004) Fluorescence polarization as an analytical tool to …. Background: In fluorescence polarisation assays a small probe gives low polarisation when free and higher when bound to something large.

For a further assay, the target named is Galectin-3 (Homo sapiens, UniProt P17931). Put plainly: fluorescence anisotropy assay: The affinity of Example 1-33 for galectins were determined by a fluorescence anisotropy assay where the compound was used as an inhibitor of the interaction between galectin and a fluorescein tagged saccharide probe as described Sörme, P., Kahl-Knutsson, B., Huflejt, M., Nilsson, U. J., and Leffler H. (2004) Fluorescence polarization as an analytical tool to evaluate galectin-ligand interactions. Anal. Biochem. 334: 36-47, (Sörme et al., 2004) and Monovalent interactions of Galectin-1 By Salomonsson, Emma; Larumbe, Amaia; Tejler, Johan; Tullberg, Erik; Rydberg, Hanna; Sundin, Anders; Khabut, Areej; Frejd, Torbjorn; Lobsanov, Yuri D.; Rini, James M.; et al, From Biochemistry (2010), 49(44), 9518-9532, (Salomonsson et al., 2010).
Galectin-3, sequence (P17931 whole entry): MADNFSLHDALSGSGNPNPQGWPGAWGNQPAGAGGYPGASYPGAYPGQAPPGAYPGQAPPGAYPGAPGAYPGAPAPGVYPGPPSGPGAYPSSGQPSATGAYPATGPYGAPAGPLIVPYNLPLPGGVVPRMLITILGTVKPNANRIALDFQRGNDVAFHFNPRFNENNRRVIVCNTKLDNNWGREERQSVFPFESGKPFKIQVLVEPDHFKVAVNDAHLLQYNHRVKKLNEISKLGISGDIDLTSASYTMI

Galectin-1, sequence (P09382 whole entry): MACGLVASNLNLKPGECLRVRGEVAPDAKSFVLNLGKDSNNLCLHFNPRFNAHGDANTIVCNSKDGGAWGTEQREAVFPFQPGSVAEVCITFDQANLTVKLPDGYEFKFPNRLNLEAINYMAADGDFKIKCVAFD

On to `OC[C@H]1O[C@H](Sc2ccc(Cl)c(Cl)c2)[C@H](O)[C@@H](n2cc(-c3nc(O)cs3)nn2)[C@H]1O`, for which the Kd at Galectin-1 stood at 0.65 µM; on Galectin-3, 1.7 µM.
